# Experiments:
# [1] = human, in vivo, po
# [2] = Di Mascio P., 1989; cited from earlier work
# [3] = tested on: prostatic carcinoma; settings: 47,000 participants over 6 years (Giovannucci, E., 1995); cited from earlier work
# [4] = cited from earlier work
# [5] = Distribution in the body after oral intake
Structure (SMILES),share of adsorbed compound that goes to the prostate and other internal organs [1],activity in quenching oxygen-singlet among all carotenoids including β-carotene [2],lowering of incidence of prostatic carcinoma in the lycopene group [3],solubility in water [4],solubility in organic solvents such as ethanol and acetone [4],main distribution in the body [5]
CC(C)=CCC/C(C)=C/C=C/C(C)=C/C=C/C(C)=C/C=C/C=C(C)/C=C/C=C(C)/C=C/C=C(\C)CCC=C(C)C [lycopene],over 90%,highest activity,over 30%,water-insoluble,,
Oc1ccc(/C=C/c2cc(O)cc(O)c2)cc1 [resveratrol],,,,slightly soluble,soluble,"heart, circulation system, along respiratory tract and skin"
